# Measurements from patent publication US5171863A, “Intermediates for preparing 4-substituted 2-5(H)-furanones as anti-inflammatory agents” (Allergan, Inc., priority 1991, dated 1992).
# Read-outs that look alike come from different tables or passages of the source.
# What was measured:
# [1] = biological target: bee venom phospholipase A2 (Apis mellifera, UniProt P00630); experiment: biochemical; conditions: read-out: IC50 (micromolar), Phospholipase A2 Assay
# Calcium Channel = Calcium Channel (mobilization) Inhibition Assay; type: cell-based
# From the text: Calcium Channel (mobilization) Inhibition Assay
# Polymorphonuclear leukocytes (PMNa), gastric glands, GH3 cells, A431 cells, spleen cells, human keratinocytes corneal cells, etc. were loaded with the Ca^2+ sensitive fluorescent dye, Fura-2. The appropriate cell type was chosen and the potency and efficacy of the anti-inflammatoryfuranones on calcium mobilization, calcium channel inhibition was quantitated. The methods used for A431 cells listed below are representative of those used for other cells.
# A431 cells were detached using a 5-10 min trypsin-EDTA treatment whereas GH3 cells were treated 2 to 5 min with a 1% pancreatin solution. Cells were immediately washed twice in a 20 mM HEPES buffer (pH 7.4) containing 120 mM NaCl, 6 mM KCl, 1 mM MgSO4, 1 mg/ml glucose and 1 mg/ml pyruvate and 1.4 mM calcium (medium A). Approximately 5×10^6 cells were suspended in medium A and incubated with 4 uM fura-2-AM for 15 min at 37° C.
# After washing the fura-2 loaded cells, the uptake of dye was checked using fluorescence microscopy and found to be evenly distributed in the cytosol of all cells. Fluorescence was continuously recorded with a Perkin-Elmer LS-5 spectrofluorometer. The excitation wavelength was set at 340 nm and emission wavelength set at 500 nm. The cell suspension was continually stirred, maintained at 37° C. and equilibrated for approximately 5 min before addition of various agents. [Ca^2+ i was calculated using the following formula: [formula]
# All fluorescence values were measured relative to a EGTA-quenched signal determined as follows: F was the relative fluorescence measurement of the sample. Fmax was determined by lysing the cells with digitonin (100 ug/ml) in DMSO. After Fmax was determined the pH was adjusted to 8, with NaOH and Ca^2+ chelated with 3 mM EGTA to totally quench the fura-2 signal and obtain Fmin.
# When quin-2- was used, cells were incubated with 10 uM quin-2- at 37° C. for 1 hour, washed and then used.
# In the above-described phospholipase A2 (PLA2) and calcium^+ channel mobilization assays certain examplary compounds made from the synthetic intermediate compounds of the present invention had the following activities.
# [2] = prior art; cited from earlier work
# [3] = tested on: phosphoinositide-specific phospholipase C; conditions: reported, Bennett et al, Molecular Pharmacology 32:587-593 (1987); cited from earlier work
# [4] = Isomerization upon standing; type: physicochemical
# [5] = read-out: IC50 (umolar) (KCl regulated), Calcium Channel Inhibition Assay
# [6] = read-out: IC50 (umolar) (TRH regulated), Calcium Channel Inhibition Assay
# Chain of bee venom phospholipase A2 (P00630 34-167 limits assumed): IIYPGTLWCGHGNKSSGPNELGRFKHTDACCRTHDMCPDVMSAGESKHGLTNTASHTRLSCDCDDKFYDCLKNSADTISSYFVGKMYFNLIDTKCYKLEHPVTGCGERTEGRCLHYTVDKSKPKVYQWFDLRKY
SMILES,IC50 [1] [µM],also measured
"CCOP(=O)(OCC)OCC1=CC(=O)OC1O (stereo not drawn) [Compound 24, 4-1-(Diethylphosphoryloxy)methyl-5-hydroxy-2(5H)-furanone]",0.34,–
"CCCCCCCCCCCCC(OC(C)=O)C1=CCOC1=O (stereo not drawn) [Compound 72, 3-(1-Acetoxytridecyl)-2(5H)-furanone]",–,IC50 (Calcium Channel; [5]): 0.88 µM; IC50 (Calcium Channel; [6]): 16.9 µM
"CCCCCCCCC(OC(C)=O)C1=CCOC1=O (stereo not drawn) [Compound 70, 3-(1-Acetoxynonyl)-2(5H)-furanone]",–,IC50 (Calcium Channel; [5]): 3.4 µM; IC50 (Calcium Channel; [6]): 4.9 µM
CC1=C(CC/C(C)=C/CCC(C=O)=CCC(O)C2=CC(=O)OC2O)C(C)(C)CCC1 (stereo not drawn) [seco-manoalide],–,"anti-inflammatory, immunosuppressive and analgesic properties [2]: anti-inflammatory activity"
"CCCCCCCCCCCCNC(=O)NCC1=CC(=O)OC1O (stereo not drawn) [Compound 26, 4-(N-Dodecylureido)methyl-5-hydroxy-2(5H)-furanone]",0.13,–
CCCCCCCCCCCCC(NC(C)=O)C1=CC(=O)OC1O (stereo not drawn) [Compound 29],0.07,–
CC(=O)OC(CNC(=O)CCCCCCCCCCC(=O)O)C1=CC(=O)OC1O (stereo not drawn) [Compound 44],0.09,–
"CCCCCCCCCCCCC(NC(=O)NC)C1=CC(=O)OC1O (stereo not drawn) [Compound 32, 4-[-1-(N-methylureido)tridecyl]-5-hydroxy-2(5H)-furanone]",0.48,–
"CCCCCCCCCCCCC(OC(C)=O)C1=C(C)C(=O)OC1O (stereo not drawn) [Compound 61, 4-(1-Acetoxytridecyl)-3-methyl-5-hydroxy-2(5H)-furanone]",> 1,–
"CCCCCCCCCCCCSCC1=CC(=O)OC1O (stereo not drawn) [Compound 47, 4-Dodecanethiomethyl-5-hydroxy-2(5H)-furanone]",0.06,–
"CCCCCCCCCCCC(=O)NCC(O)C1=CC(=O)OC1O (stereo not drawn) [Compound 40, 4-(2-Undecanylamido-1-hydroxy)ethyl-5-hydroxy-2(5H)-furanone]",0.28,–
"CCCCCCCCCCCCC(OC(=O)Nc1ccccc1)C1=CC(=O)OC1(C)O (stereo not drawn) [Compound 62, 5-Methyl-5-hydroxy-4-(1-phenylcarbamoyloxy)tridecyl-2-furanone]",0.24,–
CCCCCCCCCCCCC(NS(C)(=O)=O)C1=CC(=O)OC1O (stereo not drawn) [Compound 31],0.05,–
"CCCCCCCCOC(=O)C=CC1=CC(=O)OC1O (stereo not drawn) [Compound 51, Octyl 3-(5-hydroxy-2-on-4-furyl)propen-2-oate]",0.09,–
"CC1=C(CC/C(C)=C/CCC2=CCC(C3=CC(=O)OC3O)OC2O)C(C)(C)CCC1 (stereo not drawn) [manoalide, reference compound]",–,"IC50 (Calcium Channel; [5]): 1 µM; IC50 (Calcium Channel; [6]): 1 µM; inhibition of phosphoinositide-specific phospholipase C [3]: inhibition of phosphoinositide-specific phospholipase C; anti-inflammatory, immunosuppressive and analgesic properties [2]: anti-inflammatory,immunosuppressive and analgesic properties"
"CCCCCCCCCCCCS(=O)(=O)NCC1=CC(=O)OC1O (stereo not drawn) [Compound 27, 4-(N-Dodecylsulfonamido)-methyl-5-hydroxy-2(5H)-furanone]",0.04,–

SMILES,IC50 [1] [µM],also measured
"CCCCCCCCCCCC(=O)NCC(OC(=O)CCCCCCCCCCC)C1=CC(=O)OC1O (stereo not drawn) [Compound 42, 4-(2-Undecanylamido-1-dodecanoyloxy)ethyl-5-hydroxy-2(5H)-furanone]",0.03,–
CC1=C(CC/C(C)=C/CCC(C=O)=CC=CC2=CC(=O)OC2O)C(C)(C)CCC1 (stereo not drawn) [dehydro-seco-manoalide],–,"anti-inflammatory, immunosuppressive and analgesic properties [2]: anti-inflammatory activity"
CCCCCCCCCCCC(=O)OCCCC1=CC(=O)OC1O (stereo not drawn) [Compound 50],0.5,–
"CCCCCCCCCCCCP(=O)(O)OCC1=CC(=O)OC1O (stereo not drawn) [Compound 21, 4-(Dodecylohosphonyloxymethyl)-5-hydroxy-2(5H)-furanone]",0.03,–
CCCCCCCCCCCC(=O)OC(CNC(=O)N1CCN(S(C)(=O)=O)CC1)C1=CC(=O)OC1O (stereo not drawn) [Compound 45],0.05,–
"CCCCCCCCCCCCNC(=O)OCC1=CC(=O)OC1O (stereo not drawn) [Compound 22, 4-(N-Dodecylcarbamoyloxymethyl)-5-hydroxy-2(5H)-furanone]",0.05,–
CCCCCCCCCCCCC(NC(=O)C(F)(F)F)C1=CC(=O)OC1O (stereo not drawn) [Compound 30],0.06,–
"CCCCCCCCCCCCC(OC(C)=O)C1=CC(=O)OC1O (stereo not drawn) [Compound 28, 4(1-Acetoxytridecyl)-5-hydroxy-2(5H)-furanone]",0.04,–
COCCOCOCC1=CC(=O)OC1O (stereo not drawn) [Compound 20],> 1,–
"CCCCCCCCCCCC(=O)NCC1=CC(=O)OC1O (stereo not drawn) [Compound 25, 4-(N-Dodecanoylaminomethyl)-5-hydroxy-2(5H)-furanone]",0.26,–
"CCCCCCCCCCCC(=O)OC(CNC(=O)N(CC)CC)C1=CC(=O)OC1O (stereo not drawn) [Compound 46, 4-[1-Dodecanoyloxy-2-(N',N'-diethyl)carboxyamido]ethyl-5-hydroxy-2(5H)-furanone]",0.02,–
CCCCCCCCCCCCOCC1=CC(=O)OC1O (stereo not drawn) [Compound 23],0.04,–
"CCCCCCCCCCCC(=O)NCC(OC(C)=O)C1=CC(=O)OC1O (stereo not drawn) [Compound 41, 4-(1-Acetoxy-2-undecanylamido)ethyl-5-hydroxy-2(5H)-furanone]",0.04,–
"CCCCCCCCCCCCC(O)C1=CCOC1=O (stereo not drawn) [Compound 71, 3-(1-Hydroxytridecyl)-2(5H)-furanone]",–,IC50 (Calcium Channel; [5]): 1.1 µM; IC50 (Calcium Channel; [6]): 2 µM
"CCCCCCCCCCCCS(=O)(=O)NCC(OC(C)=O)C1=CC(=O)OC1O (stereo not drawn) [Compound 43, 4-[1-Acetoxy-2-(dodecanesulfonylamido)ethyl]-5-hydroxy-2(5H)-furanone]",0.03,–
"CCCCCCCCCCCCC(OC(C)=O)C1=CC(=O)OC1(C)O (stereo not drawn) [Compound 60, 4-(1-Acetoxytridecyl)-5-hydroxy-5-methyl-2-furanone]",0.06,isomerization of epimers upon standing [4]: isomerizes upon standing
